This assay concerns the target T1, SHP-2 N-SH2 domain (Homo sapiens, UniProt Q06124).
T1 sequence (Q06124 1-106): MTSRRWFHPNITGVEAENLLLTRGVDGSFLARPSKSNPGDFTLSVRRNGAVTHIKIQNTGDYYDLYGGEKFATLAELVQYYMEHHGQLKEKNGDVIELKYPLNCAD
In words: SPR competition assay against immobilized pYAQL peptide. Type of assay: binding.

SMILES strings stand for the structures. Square brackets hold non-standard residues; d marks the D form. Peptide text beside a SMILES is read from it. pY = N[C@@H](Cc1ccc(OP(=O)(O)O)cc1)C(=O)O

Compound `CC(C)C[C@H](NC(=O)[C@H](CCC(N)=O)NC(=O)[C@H](C)NC(=O)[C@H](Cc1ccc(OP(=O)(O)O)cc1)NC(=O)[C@H](CC(N)=O)NC(=O)[C@H](CC(C)C)NC(=O)[C@@H](N)CCCNC(=N)N)C(=O)N[C@@H](Cc1c[nH]c2ccccc12)C(=O)N[C@@H](Cc1c[nH]cn1)C(=O)N[C@@H](CCCNC(=N)N)C(N)=O` [pYAQL] (H-RLN[pY]AQLWHR-NH2) gave a half-maximal inhibitory concentration (IC50) of 600 ± 100 nM.

What is called IC50 is the midpoint of a concentration-inhibition curve.

The record behind these values is publication PMC3164524 (Biochemistry, 2011).
